Results reported in patent US20260315604A1, “OTUB1 Small-Molecule Binders and OTUB1-recruiting Deubiquitinase-targeting Chimeras (DUBTACs)” (ICAHN SCHOOL OF MEDICINE AT MOUNT SINAI, priority 2023, published 2026).

Target: T1, Human OTUB1 wild-type (Homo sapiens, UniProt Q96FW1)
T1 construct: His tag (N); made in house; host or cells: E. coli BL21-CodonPlus (DE3)-RIPIL
Assay: Covalent modification of OTUB1 (adduct formation), mass spectrometry-based assay (OTUB1 covalent binders; selected CFTR or cGAS based bivalent compounds)
Assay type: binding
Conditions: covalent adduct formation with OTUB1 protein
Experimental: OTUB1 covalent binders were tested for their ability to form the covalent adduct with OTUB1 protein using a mass-spectrometry based assay.
Example 389. Assessment of the Covalent Modification of OTUB1 Protein by Selected OTUB1 Covalent Binders Using a Mass Spectrometry-Based Assay (FIG. 1)
OTUB1 protein (10 μM) was incubated with selecting compounds (2500 μM) at RT for 1 h. The adduct was qualified by mass spectrometry-based assays.
Example 398. Assessment of the Covalent Modification of OTUB1 Protein by Selected CFTR Based Bivalent Compounds Using Mass Spectrometry-Based Assay (FIG. 10)
OTUB1 protein (10 μM) was incubated with selecting bivalent compounds (2500 μM) at RT for 1 h. The adduct was qualified by mass spectrometry-based assays.
Human OTUB1 wild-type (NM_017670.3) and C23S mutation genes were optimized based on the codon preference of E. coli, synthesized and cloned into pET15b vector with a N-terminal His tag by Genscript, respectively. The plasmid was transferred to BL21-CodonPlus (DE3)-RIPIL Competent Cell (230280, Agilent Technologies) and the recombinant protein was induced expressed by 0.5 mM IPTG at 16° C. with shaking 200 rpm for 18 h. Induced cells were harvested by centrifugation and resuspended in cold lysis buffer (50 mM Tris-H—Cl pH 7.5, 150 mM NaCl, 25 mM imidazole pH 7.5, 0.01% IGEPAL, 5% Glycerol) in the presence of Pierce Protease Inhibitor tablets (PIA32963, Fisher Scientific) and 2 mM TCEP pH 7.5.
The cells were lysed by sonication, clarified by centrifugation, and the filtered supernatant loaded onto a 5 ml HisTrap HP affinity column (17524802, Cytiva) in AKTA system. The His-recombinant protein bound to column was washed using buffer A (50 mM Tris-HCl pH 7.5, 150 mM NaCl, 25 mM imidazole pH 7.5, 0.01% IGEPAL, 5% Glycerol) and eluted with buffer B (50 mM Tris-HCl pH 7.5, 150 mM NaCl, 250 mM imidazole pH 7.5, 0.01% IGEPAL, 5% Glycerol). The eluted fractions containing OTUB1 protein were concentrated and subjected to size exclusion chromatography using a 320 mL HiLoad 26/600 Superdex 200 pg column (28989336, Cytiva) under the buffer condition ([…] Tris-HCl pH 7.5, 150 mM NaCl, and 2 mM TCEP pH 7.5). The eluted fractions containing OTUB1 protein were concentrated, divided into aliquots and stored at −80° C. freezer for further usage.
Quality control of the OTUB1 proteins was performed by SDS-PAGE, Nanodrop and mass spectrometry.
Mass Spectrometry-Based Analysis of OTUB1-Covalent Ligand Adducts
To screen the covalent ligands, recombinant OTUB1 protein (10 μM) was respectively incubated with DMSO, EN523 or seven novel ligands (2500 μM) in reaction buffer (50 mM Tris-HCl pH 7.5, 150 mM NaCl, and 0.5 mM TCEP pH 7.5) for 1 h at room temperature.
Then, the total 500 μL reaction solution was exchanged and concentrated to 50 μL 50 mM ammonium bicarbonate with a 10 kDa MWCO centrifugal filter unit (UFC901024, Millipore) and diluted in MS buffer (30% ACN, 0.2% FA) to a final concentration of […]. Mass spectrometry detection was performed by an Agilent LC/MSD Time-Of-Flight (TOF) mass spectrometer (Agilent Technologies) equipped with an electrospray ion source. The data was analyzed by TOF Protein Confirmation Software. All experiments were performed in duplicate.

T1 sequence (Q96FW1 whole entry): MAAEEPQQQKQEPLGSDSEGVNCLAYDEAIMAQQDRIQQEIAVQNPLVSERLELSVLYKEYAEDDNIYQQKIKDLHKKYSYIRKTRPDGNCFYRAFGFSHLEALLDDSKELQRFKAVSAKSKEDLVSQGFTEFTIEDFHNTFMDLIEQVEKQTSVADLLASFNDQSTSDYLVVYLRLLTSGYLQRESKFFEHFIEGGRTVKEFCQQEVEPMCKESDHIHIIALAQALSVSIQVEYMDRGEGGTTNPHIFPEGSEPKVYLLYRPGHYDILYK

Row | SMILES | % of OTUB1 modified [%]
1 | Cc1ccc(NC(=O)C2CN(C(=O)CCl)C2)s1 [XS175-126, 1-(2-chloroacetyl)-N-(5-methylthiophen-2-yl)azetidine-3-carboxamide] | 100
2 | Cc1ccc(NC(=O)C2CCN(C(=O)/C=C/CN(C)C)C2)s1 (centres unmarked) [XS175-133, (E)-1-(4-(dimethylamino)but-2-enoyl)-N-(5-methylthiophen-2-yl)pyrrolidine-3-carboxamide] | 2
3 | CC(C)c1ccc(NC(=O)C2CN(C(=O)/C=C/CN(C)C)C2)s1 [XS175-143, (E)-1-(4-(dimethylamino)but-2-enoyl)-N-(5-isopropylthiophen-2-yl)azetidine-3-carboxamide] | 45
4 | Cc1ccc(NC(=O)C2CCCCN2C(=O)/C=C/CN(C)C)s1 (centres unmarked) [XS175-148, (E)-1-(4-(dimethylamino)but-2-enoyl)-N-(5-methylthiophen-2-yl)piperidine-2-carboxamide] | 20
5 | Cc1ccc(NC(=O)C2CC3(C2)CN(C(=O)/C=C/CN(C)C)C3)s1 [XS175-149, (E)-2-(4-(dimethylamino)but-2-enoyl)-N-(5-methylthiophen-2-yl)-2-azaspiro[3.3]heptane-6-carboxamide] | 18
6 | CN(C)C/C=C/C(=O)N1CCN(c2ccc(-c3ccccc3)s2)C(=O)C1 [XS175-158, (E)-4-(4-(dimethylamino)but-2-enoyl)-1-(5-phenylthiophen-2-yl)piperazin-2-one] | 45
7 | Cc1ccc(N(C)C(=O)CCN(C)C(=O)/C=C/CN(C)C)s1 [XS175-160, (E)-4-(dimethylamino)-N-methyl-N-(3-(methyl(5-methylthiophen-2-yl)amino)-3-oxopropyl)but-2-enamide] | <1
8 | Cc1csc(NC(=O)C2CCN(C(=O)/C=C/CN(C)C)CC2)c1 [XS175-173, (E)-1-(4-(dimethylamino)but-2-enoyl)-N-(4-methylthiophen-2-yl)piperidine-4-carboxamide] | 3
9 | CC(C)c1ccc(NC(=O)C2CCN(C(=O)/C=C/CN(C)C)CC2)s1 [XS175-178, (E)-1-(4-(dimethylamino)but-2-enoyl)-N-(5-isopropylthiophen-2-yl)piperidine-4-carboxamide] | 3
10 | CN(C)C/C=C/C(=O)N1CCN(c2cc3ccccc3s2)C(=O)C1 [XS175-179, (E)-1-(benzo[b]thiophen-2-yl)-4-(4-(dimethylamino)but-2-enoyl)piperazin-2-one] | 100
11 | CC(C)c1ccc(NC(=O)C2CCN(C(=O)/C=C/CN(C)C)C2)s1 (centres unmarked) [XS175-180, (E)-1-(4-(dimethylamino)but-2-enoyl)-N-(5-isopropylthiophen-2-yl)pyrrolidine-3-carboxamide] | 8
12 | CN(C)C/C=C/C(=O)N1CCN(c2cc3c(s2)CCCC3)C(=O)C1 [XS175-186, (E)-4-(4-(dimethylamino)but-2-enoyl)-1-(4,5,6,7-tetrahydrobenzo[b]thiophen-2-yl)piperazin-2-one] | 100
13 | Cc1ccc(N2CC3(CN(C(=O)/C=C/CN(C)C)C3)C2)s1 [XS185-3, (E)-4-(dimethylamino)-1-(6-(5-methylthiophen-2-yl)-2,6-diazaspiro[3.3]heptan-2-yl)but-2-en-1-one] | 35
14 | Cc1ccc(NC(=O)C2CCN(C(=O)CCl)CC2)s1 [XS185-4, 1-(2-chloroacetyl)-N-(5-methylthiophen-2-yl)piperidine-4-carboxamide] | 100
15 | Cc1ccc(NC(=O)C2CC3(C2)CN(C(=O)CCl)C3)s1 [XS185-5, 2-(2-chloroacetyl)-N-(5-methylthiophen-2-yl)-2-azaspiro[3.3]heptane-6-carboxamide] | 100
16 | CC(C)c1ccc(NC(=O)C2CCN(C(=O)CCl)CC2)s1 [XS185-6, 1-(2-chloroacetyl)-N-(5-isopropylthiophen-2-yl)piperidine-4-carboxamide] | 100
17 | CN(C)C/C=C/C(=O)N1CCN(c2c[nH]c3ccccc23)C(=O)C1 [XS185-43, (E)-4-(4-(dimethylamino)but-2-enoyl)-1-(1H-indol-3-yl)piperazin-2-one] | 58
18 | CN(C)C/C=C/C(=O)N1CC2(C1)CN(c1cc3ccccc3s1)C2 [XS185-46, (E)-1-(6-(benzo[b]thiophen-2-yl)-2,6-diazaspiro[3.3]heptan-2-yl)-4-(dimethylamino)but-2-en-1-one] | 1
19 | Cc1ccc(C(=O)N2CCN(C(=O)/C=C/CN(C)C)CC2)s1 [XS185-64, (E)-4-(dimethylamino)-1-(4-(5-methylthiophene-2-carbonyl)piperazin-1-yl)but-2-en-1-one] | 20
20 | Cc1ccc(C(=O)N2CCC(NC(=O)/C=C/CN(C)C)CC2)s1 [XS185-65, (E)-4-(dimethylamino)-N-(1-(5-methylthiophene-2-carbonyl)piperidin-4-yl)but-2-enamide] | 1
21 | Cc1ccc(C(=O)N2CC3(CCN(C(=O)/C=C/CN(C)C)CC3)C2)s1 [XS185-66, (E)-4-(dimethylamino)-1-(2-(5-methylthiophene-2-carbonyl)-2,7-diazaspiro[3.5]nonan-7-yl)but-2-en-1-one] | 20
22 | Cc1ccc(C(=O)N2C3CC2CN(C(=O)/C=C/CN(C)C)C3)s1 [XS185-67, (E)-4-(dimethylamino)-1-(6-(5-methylthiophene-2-carbonyl)-3,6-diazabicyclo[3.1.1]heptan-3-yl)but-2-en-1-one] | 15
23 | Cc1ccc(C(=O)N2CC3(CN(C(=O)/C=C/CN(C)C)C3)C2)s1 [XS185-69, (E)-4-(dimethylamino)-1-(6-(5-methylthiophene-2-carbonyl)-2,6-diazaspiro[3.3]heptan-2-yl)but-2-en-1-one] | 30
24 | Cc1ccc(C(=O)N2CC3CCC(C2)N3C(=O)/C=C/CN(C)C)s1 [XS185-70, (E)-4-(dimethylamino)-1-(3-(5-methylthiophene-2-carbonyl)-3,8-diazabicyclo[3.2.1]octan-8-yl)but-2-en-1-one] | 20
25 | Cc1ccc(C(=O)N2C3CCC2CN(C(=O)/C=C/CN(C)C)C3)s1 [XS185-71, (E)-4-(dimethylamino)-1-(8-(5-methylthiophene-2-carbonyl)-3,8-diazabicyclo[3.2.1]octan-3-yl)but-2-en-1-one] | 15
26 | Cc1ccc(C(=O)N2CC3CC(C2)N3C(=O)/C=C/CN(C)C)s1 [XS185-72, (E)-4-(dimethylamino)-1-(3-(5-methylthiophene-2-carbonyl)-3,6-diazabicyclo[3.1.1]heptan-6-yl)but-2-en-1-one] | 90
27 | Cc1ccc(N2CC3CCC(C2=O)N3C(=O)/C=C/CN(C)C)s1 (centres unmarked) [XS185-75, (E)-8-(4-(dimethylamino)but-2-enoyl)-3-(5-methylthiophen-2-yl)-3,8-diazabicyclo[3.2.1]octan-2-one] | 98
28 | CN(C)C/C=C/C(=O)N1CCN(c2cc3ccccc3o2)C(=O)C1 [XS185-78, (E)-1-(benzofuran-2-yl)-4-(4-(dimethylamino)but-2-enoyl)piperazin-2-one] | 40
29 | CN(C)C/C=C/C(=O)N1CCN(c2csc3ccccc23)C(=O)C1 [XS185-86, (E)-1-(benzo[b]thiophen-3-yl)-4-(4-(dimethylamino)but-2-enoyl)piperazin-2-one] | 80
